Results: US6525001B1, “Substituted pyrimidine and pyridine herbicides” (Mid-American Commercialization Corporation, priority 1997, dated 2003)

Tests used:
Assay in all cases: Test B pre-/postemergence
Type in all cases: in vivo
Set-up in all cases: key: 0 is no effect; 10 is complete control
[1] = test system: sugar beet (Beta vulgaris)
Outline: (§1)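 Seeds were planted and sprayed preemergence, while plants at 2 to 18 cm (1- to 4-leaf stage) were sprayed postemergence at the same time, with test chemical in a non-phytotoxic solvent mixture containing surfactant. After twelve to sixteen days in a greenhouse, injury was rated visually against untreated controls on a 0–10 scale.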

[2] = test system: cocklebur (Xanthium strumarium)
Outline: as §1

[3] = test system: momingglory (Ipomoea hederacea)
Outline: as §1

[4] = test system: blackgrass (Alopecurus myosuroides)
Outline: as §1

[5] = test system: wheat (Triticum aestivum)
Outline: as §1

corn (Zea mays) = test system: corn (Zea mays)
Outline: as §1

soybean (Glycine max) = test system: soybean (Glycine max)
Outline: as §1

wild oat (Avena fatua) = test system: wild oat (Avena fatua)
Outline: as §1

[6] = test system: giant foxtail (Setaria faberii)
Outline: as §1

[7] = test system: crabgrass (Digitaria sanguinalis)
Outline: as §1

[8] = test system: pigweed (Amaranthus retroflexus)
Outline: as §1

[9] = test system: velvetleaf (Abutilon theophrasti)
Outline: as §1

[10] = test system: purple nutsedge (Cyperus rotundus); details: for Plant response rating, Nutsedge: Preemergence; for Nutsedge plant response rating: Postemergence
Outline: as §1

[11] = test system: broadleaf signalgrass (Brachiaria decumbens)
Outline: as §1

[12] = Preemergence, Rate 62 g/ha, scale of 0 to 10

## Cc1cnc(-n2ccc(C(F)(F)C(F)(F)F)n2)nc1C(=O)c1cccc(OC(F)(F)F)c1 [Compound 62]
[1]; [12]
  Plant response rating, Sugarbeets: 8
[1]; Rate 62 g/ha, Postemergence
  Sugarbeets plant response rating: 9
[1]; Rate 125 g/ha, Postemergence
  Sugarbeets plant response rating: 9
[1]; Rate 125 g/ha, Preemergence
  Plant response rating, Sugarbeets: 10
[1]; Rate 250 g/ha, Postemergence
  Plant response rating, Sugarbeets: 9
[1]; Rate 250 g/ha, Preemergence
  Plant response rating, Sugarbeets: 10
[1]; Rate 500 g/ha, Postemergence
  Plant response rating, Sugarbeets: 9
[1]; Rate 500 g/ha, Preemergence
  Plant response rating, Sugarbeets: 10
[2]; [12]
  Plant response rating, Cocklebur: 0
[2]; Rate 62 g/ha, Postemergence
  Cocklebur plant response rating: 2
[2]; Rate 125 g/ha, Postemergence
  Cocklebur plant response rating: 5
[2]; Rate 125 g/ha, Preemergence
  Plant response rating, Cocklebur: 0
[2]; Rate 250 g/ha, Postemergence
  Plant response rating, Cocklebur: 7
[2]; Rate 500 g/ha, Postemergence
  Plant response rating, Cocklebur: 7
[2]; Rate 500 g/ha, Preemergence
  Plant response rating, Cocklebur: 0
[3]; [12]
  Plant response rating, Morningglory: 1
[3]; Rate 62 g/ha, Postemergence
  Morningglory plant response rating: 3
[3]; Rate 125 g/ha, Postemergence
  Morningglory plant response rating: 4
[3]; Rate 125 g/ha, Preemergence
  Plant response rating, Morningglory: 2
[3]; Rate 250 g/ha, Postemergence
  Plant response rating, Morningglory: 9
[3]; Rate 250 g/ha, Preemergence
  Plant response rating, Morningglory: 4
[3]; Rate 500 g/ha, Postemergence
  Plant response rating, Morningglory: 10
[3]; Rate 500 g/ha, Preemergence
  Plant response rating, Morningglory: 7
[4]; [12]
  Plant response rating, Blackgrass: 1
[4]; Rate 62 g/ha, Postemergence
  Blackgrass plant response rating: 1
[4]; Rate 125 g/ha, Postemergence
  Blackgrass plant response rating: 1
[4]; Rate 125 g/ha, Preemergence
  Plant response rating, Blackgrass: 1
[4]; Rate 250 g/ha, Postemergence
  Plant response rating, Blackgrass: 2
[4]; Rate 250 g/ha, Preemergence
  Plant response rating, Blackgrass: 1
[4]; Rate 500 g/ha, Postemergence
  Plant response rating, Blackgrass: 4
[4]; Rate 500 g/ha, Preemergence
  Plant response rating, Blackgrass: 5
[5]; [12]
  Plant response rating, Wheat: 0
[5]; Rate 62 g/ha, Postemergence
  Wheat plant response rating: 1
[5]; Rate 125 g/ha, Postemergence
  Wheat plant response rating: 2
[5]; Rate 125 g/ha, Preemergence
  Plant response rating, Wheat: 0
[5]; Rate 250 g/ha, Postemergence
  Plant response rating, Wheat: 2
[5]; Rate 250 g/ha, Preemergence
  Plant response rating, Wheat: 0
[5]; Rate 500 g/ha, Postemergence
  Plant response rating, Wheat: 3
[5]; Rate 500 g/ha, Preemergence
  Plant response rating, Wheat: 0
Corn (Zea mays); [12]
  Plant response rating, Corn: 0
Corn (Zea mays); Rate 62 g/ha, Postemergence
  Corn plant response rating: 1
Corn (Zea mays); Rate 125 g/ha, Postemergence
  Corn plant response rating: 2
Corn (Zea mays); Rate 125 g/ha, Preemergence
  Plant response rating, Corn: 0
Corn (Zea mays); Rate 250 g/ha, Postemergence
  Plant response rating, Corn: 2
Corn (Zea mays); Rate 250 g/ha, Preemergence
  Plant response rating, Corn: 1
Corn (Zea mays); Rate 500 g/ha, Postemergence
  Plant response rating, Corn: 2
Corn (Zea mays); Rate 500 g/ha, Preemergence
  Plant response rating, Corn: 2
Soybean (Glycine max); [12]
  Plant response rating, Soybean: 0
Soybean (Glycine max); Rate 62 g/ha, Postemergence
  Soybean plant response rating: 1
Soybean (Glycine max); Rate 125 g/ha, Postemergence
  Soybean plant response rating: 1
Soybean (Glycine max); Rate 125 g/ha, Preemergence
  Plant response rating, Soybean: 0
Soybean (Glycine max); Rate 250 g/ha, Postemergence
  Plant response rating, Soybean: 1
Soybean (Glycine max); Rate 250 g/ha, Preemergence
  Plant response rating, Soybean: 0
Soybean (Glycine max); Rate 500 g/ha, Postemergence
  Plant response rating, Soybean: 2
Soybean (Glycine max); Rate 500 g/ha, Preemergence
  Plant response rating, Soybean: 1
Wild oat (Avena fatua); [12]
  Plant response rating, Wild oats: 1
Wild oat (Avena fatua); Rate 62 g/ha, Postemergence
  Wild oats plant response rating: 1
Wild oat (Avena fatua); Rate 125 g/ha, Postemergence
  Wild oats plant response rating: 1
Wild oat (Avena fatua); Rate 125 g/ha, Preemergence
  Plant response rating, Wild oats: 3
Wild oat (Avena fatua); Rate 250 g/ha, Postemergence
  Plant response rating, Wild oats: 1
Wild oat (Avena fatua); Rate 250 g/ha, Preemergence
  Plant response rating, Wild oats: 4
Wild oat (Avena fatua); Rate 500 g/ha, Postemergence
  Plant response rating, Wild oats: 3
Wild oat (Avena fatua); Rate 500 g/ha, Preemergence
  Plant response rating, Wild oats: 4
[6]; [12]
  Plant response rating, Giant foxtail: 1
[6]; Rate 62 g/ha, Postemergence
  Giant foxtail plant response rating: 1
[6]; Rate 125 g/ha, Postemergence
  Giant foxtail plant response rating: 2
[6]; Rate 125 g/ha, Preemergence
  Plant response rating, Giant foxtail: 2
[6]; Rate 250 g/ha, Postemergence
  Plant response rating, Giant foxtail: 2
[6]; Rate 250 g/ha, Preemergence
  Plant response rating, Giant foxtail: 4
[6]; Rate 500 g/ha, Postemergence
  Plant response rating, Giant foxtail: 3
[6]; Rate 500 g/ha, Preemergence
  Plant response rating, Giant foxtail: 4
[7]; [12]
  Plant response rating, Crabgrass: 2
[7]; Rate 62 g/ha, Postemergence
  Crabgrass plant response rating: 2
[7]; Rate 125 g/ha, Postemergence
  Crabgrass plant response rating: 3
[7]; Rate 125 g/ha, Preemergence
  Plant response rating, Crabgrass: 3
[7]; Rate 250 g/ha, Postemergence
  Plant response rating, Crabgrass: 5
[7]; Rate 250 g/ha, Preemergence
  Plant response rating, Crabgrass: 9
[7]; Rate 500 g/ha, Postemergence
  Plant response rating, Crabgrass: 8
[7]; Rate 500 g/ha, Preemergence
  Plant response rating, Crabgrass: 10
[8]; [12]
  Plant response rating, Redroot pigweed: 8
[8]; Rate 62 g/ha, Postemergence
  Redroot pigweed plant response rating: 8
[8]; Rate 125 g/ha, Postemergence
  Redroot pigweed plant response rating: 9
[8]; Rate 125 g/ha, Preemergence
  Plant response rating, Redroot pigweed: 9
[8]; Rate 250 g/ha, Postemergence
  Plant response rating, Redroot pigweed: 9
[8]; Rate 250 g/ha, Preemergence
  Plant response rating, Redroot pigweed: 10
[8]; Rate 500 g/ha, Postemergence
  Plant response rating, Redroot pigweed: 10
[8]; Rate 500 g/ha, Preemergence
  Plant response rating, Redroot pigweed: 10
[9]; [12]
  Plant response rating, Velvetleaf: 1
[9]; Rate 62 g/ha, Postemergence
  Velvetleaf plant response rating: 2
[9]; Rate 125 g/ha, Postemergence
  Velvetleaf plant response rating: 2
[9]; Rate 125 g/ha, Preemergence
  Plant response rating, Velvetleaf: 2
[9]; Rate 250 g/ha, Postemergence
  Plant response rating, Velvetleaf: 2
[9]; Rate 250 g/ha, Preemergence
  Plant response rating, Velvetleaf: 2
[9]; Rate 500 g/ha, Postemergence
  Plant response rating, Velvetleaf: 3
[9]; Rate 500 g/ha, Preemergence
  Plant response rating, Velvetleaf: 7
[10]; Rate 62 g/ha, scale of 0 to 10
  Plant response rating, Nutsedge: 0
[10]; Rate 62 g/ha
  Nutsedge plant response rating: 0
[10]; Rate 125 g/ha
  Nutsedge plant response rating: 0
  Plant response rating, Nutsedge: 0
[10]; Rate 250 g/ha
  Plant response rating, Nutsedge: 0
[10]; Rate 500 g/ha
  Plant response rating, Nutsedge: 0
[11]; Rate 62 g/ha, Postemergence
  B. signalgrass plant response rating: 2
[11]; Rate 62 g/ha, Preemergence
  B. signalgrass plant response rating: 4
[11]; Rate 125 g/ha, Postemergence
  B. signalgrass plant response rating: 2
[11]; Rate 125 g/ha, Preemergence
  Plant response rating, B. signalgrass: 4
[11]; Rate 250 g/ha, Postemergence
  Plant response rating, B. signalgrass: 2
[11]; Rate 250 g/ha, Preemergence
  Plant response rating, B. signalgrass: 8
[11]; Rate 500 g/ha, Postemergence
  Plant response rating, B. signalgrass: 3
[11]; Rate 500 g/ha, Preemergence
  Plant response rating, B. signalgrass: 9
